{
  "source": "patent US20150125457A1",
  "about": "“BONE REPAIR PROMOTER” (DAIICHI SANKYO COMPANY, LIMITED, priority 2012, published 2015)",
  "type_in_all_cases": "in vivo",
  "key": {"[1]": {"tested_on": "rat femur fracture model", "test": "Rat femur fracture model, soft X-ray radiography of femurs", "settings": "10 or 100 nmol/kg s.c. once per day for 8 weeks; FIG. 1", "procedure": "A fracture model was surgically prepared at the left femoral diaphysis of a 6-week-old female SD strain (Crl: CD) IGS rat. A barbital-based anesthetic agent (Somnopentyl®, Kyoritsu Seiyaku Corporation) was intraperitoneally administered to an animal in order to anesthetize the animal. Isoflurane (Escain, Mylan Inc.) inhalation anesthesia was performed as an adjunct to anesthesia. The skin on the upside of the knee joint was incised, exfoliation was performed between the rectus femoris muscle and the vastus lateralis muscle to expose the femur. At around 0.5 mm distal from the center of the femoral diaphysis, the diaphysis was completely cut in cross-section by a bone cutter (Osada Equipment Co., Ltd.). […] For the resected bone, the bone length, and the callus size in the fracture site were measured, the left and right femurs were subjected to soft X-ray radiography, and then the healing state in the fracture site was determined. […] At 2, 4, and 6 weeks after the administration, one from each of the cases was sampled for follow-up, further the one in the control group, which had shown nonunion-like symptoms, was excluded from the evaluation, and eventually the results were evaluated as a group of 10 rats."}, "[2]": {"tested_on": "Sox9 gene", "test": "Rat closed femur fracture model, cartilage-related marker gene expression (real-time PCR)", "settings": "0.5 mg/kg/day continuous s.c. (osmotic pump) for one week; 7 days after fracture; normalized to ubiquitin C", "procedure": "In accordance with the method of Example 2, a rat closed fracture model was prepared. For an animal in a Sham group, a pin only was inserted into the femur, and a bone fracture was not prepared. An administration solution of CNP derivative A was prepared so as to be a dosage corresponding to 0.5 mg/kg/day, and then loaded into an osmotic pump (model 2001, Alzet). The osmotic pump was buried under the skin of the neck back of the animal, and continuous subcutaneous administration was performed for one week. Vehicle was continuously subcutaneously administered to the control group. 7 days after the preparation of the bone fracture, the animal was subjected to isoflurane inhalation anesthesia, retained in a supine position to open the abdomen, and then bled for the euthanasia. The left femur was resected, and immersed into RNAlater (Life Technologies Corporation). The diaphysis or part of the callus was cut out from the femur that had been refrigerated in RNAlater for one day or more. To the cut-out diaphysis or part of the callus, QIAzol (QIAGEN) was added, and the resultant was crushed with tungsten beads. […] The gene expression level was measured by a real-time PCR method using TaqMan Gene Expression Master Mix (Life Technologies Corporation). The measured value was standardized by the gene expression level of ubiquitin-C. […]"}, "[3]": {"tested_on": "type X collagen gene", "test": "Rat closed femur fracture model, cartilage-related marker gene expression (real-time PCR)", "settings": "7 days after fracture", "procedure": "In accordance with the method of Example 2, a rat closed fracture model was prepared. For an animal in a Sham group, a pin only was inserted into the femur, and a bone fracture was not prepared. An administration solution of CNP derivative A was prepared so as to be a dosage corresponding to 0.5 mg/kg/day, and then loaded into an osmotic pump (model 2001, Alzet). The osmotic pump was buried under the skin of the neck back of the animal, and continuous subcutaneous administration was performed for one week. Vehicle was continuously subcutaneously administered to the control group. 7 days after the preparation of the bone fracture, the animal was subjected to isoflurane inhalation anesthesia, retained in a supine position to open the abdomen, and then bled for the euthanasia. The left femur was resected, and immersed into RNAlater (Life Technologies Corporation). The diaphysis or part of the callus was cut out from the femur that had been refrigerated in RNAlater for one day or more. To the cut-out diaphysis or part of the callus, QIAzol (QIAGEN) was added, and the resultant was crushed with tungsten beads. The total RNA was extracted by an RNeasy Mini Kit (QIAGEN), and 1st strand cDNA was synthesized by a SuperScript VILO cDNA Synthesis Kit (Life Technologies Corporation). The gene expression level was measured by a real-time PCR method using TaqMan Gene Expression Master Mix (Life Technologies Corporation). The measured value was standardized by the gene expression level of ubiquitin-C. The standardization was performed for 12 cases in each group.\nIn accordance with the method of Example 2, a rat closed fracture model was prepared. An administration solution was prepared so as to be a dosage corresponding to 0.5 mg/kg/day by using various NPR-B agonists (CNP derivative A, hCNP-53 (SEQ ID NO: 2), CNP derivative C (CNP-36, amino acid Nos. 18 to 53 of SEQ ID NO: 2), and CNP derivative D (Pro-Gly-CNP37, SEQ ID NO: 15)), and then loaded into an osmotic pump (Model 2001, Alzet). The osmotic pump was buried under the skin of the neck back of the animal retained in a supine position, and continuous subcutaneous administration was performed for one week. Vehicle was administered to the control group. 7 days after the preparation of the bone fracture, the animal was subjected to isoflurane inhalation anesthesia, retained in a supine position to open the abdomen, and then subjected to blood collection from the abdominal aorta. EDTA Na was added to the blood, then the EDTA Na-added blood was centrifuged and the plasma separated, and the resultant was cryopreserved. At a later date, the cGMP level in the plasma was measured by a RIA method using a kit (YSI-7702, YAMASA CORPORATION). After blood collection, the animal was bled for the euthanasia, and then the left femur was resected. Each maximum diameter of the sagittal plane and the coronal plane in the callus was measured, and the average value was used as a callus diameter. In accordance with the method of Example 3, the type X collagen gene expression level in the callus was measured. The measurement was performed for 12 cases in each group."}, "[4]": {"tested_on": "rat femur fracture model", "test": "Rat femur fracture model (surgically cut femoral diaphysis), three-point bending bone strength test", "settings": "for Break deformation / Break energy / Break strength / Maximum load / Stiffness (Δ70%-20%) / Break deformation, left/right ratio / Break energy, left/right ratio / Break strength, left/right ratio / Maximum load, left/right ratio / Stiffness (Δ70%-20%), left/right ratio: mean ± SD, N=10; for Break deformation, left/right ratio / Break energy, left/right ratio / Break strength, left/right ratio / Maximum load, left/right ratio / Stiffness (Δ70%-20%), left/right ratio: ratio of left/right femurs", "procedure": "A fracture model was surgically prepared at the left femoral diaphysis of a 6-week-old female SD strain (Crl: CD) IGS rat. A barbital-based anesthetic agent (Somnopentyl®, Kyoritsu Seiyaku Corporation) was intraperitoneally administered to an animal in order to anesthetize the animal. Isoflurane (Escain, Mylan Inc.) inhalation anesthesia was performed as an adjunct to anesthesia. The skin on the upside of the knee joint was incised, exfoliation was performed between the rectus femoris muscle and the vastus lateralis muscle to expose the femur. At around 0.5 mm distal from the center of the femoral diaphysis, the diaphysis was completely cut in cross-section by a bone cutter (Osada Equipment Co., Ltd.). After that, an injection needle 21G was inserted into the bone marrow between the greater trochanter and the femur neck of the left femur, and the muscle and the skin were sutured with 2 to 3 stitches. For the prevention of post-operative suppuration, potassium penicillin G for injection (Meiji Seika Kaisha, Limited) was administered as an antibiotic, and the suture site of the skin was disinfected with povidone-iodine (Isodine®, Meiji Seika Kaisha, Limited). As the test substance, CNP derivative A (SEQ ID NO: 13: the SEQ ID NO: 157 of the publication of US patent application US 2010-305031, produced by a method described in the publication) was used for repeated subcutaneous administration at 10 or 100 nmol/kg once per day for 8 weeks. Vehicle was administered to the control group. On the next day after the administration end date, the left and right femurs and the left and right tibiae were resected. For the resected bone, the bone length, and the callus size in the fracture site were measured, the left and right femurs were subjected to soft X-ray radiography, and then the healing state in the fracture site was determined. After that, a three-point bending strength test was performed by using a bone strength measuring device MZ-500S (MARUTO INSTRUMENT CO., LTD.), and a bone strength testing system CTR win Ver. 1.21 (System Supply Co., Ltd.). The bone after finishing the measurements was fixed with 10% neutral buffered formalin, and the pathologic sample was prepared and observed. The administration was performed to a group of 14 rats including spare rats. At 2, 4, and 6 weeks after the administration, one from each of the cases was sampled for follow-up, further the one in the control group, which had shown nonunion-like symptoms, was excluded from the evaluation, and eventually the results were evaluated as a group of 10 rats."}, "[5]": {"settings": "10 nmol/kg s.c. once per day for 8 weeks, fractured left femur"}, "[6]": {"settings": "10 nmol/kg s.c. once per day for 8 weeks"}, "[7]": {"settings": "10 nmol/kg s.c. once per day for 8 weeks, untreated right femur"}, "[8]": {"settings": "100 nmol/kg s.c. once per day for 8 weeks, fractured left femur"}, "[9]": {"settings": "100 nmol/kg s.c. once per day for 8 weeks"}, "[10]": {"settings": "100 nmol/kg s.c. once per day for 8 weeks, untreated right femur"}},
  "note": "“And” between values parts separate entries of the source, which are not always exact repeats. Identical values can stand only once.",
  "data": [
    {"substance": "CNP derivative A: CNP (1-22) Ghrelin (12-28, E17D): SEQ ID NO: 13; SEQ ID NO: 157 of US 2010-305031 (GLSKGCFGLKLDRIGSMSGLGCVQQRKDSKKPPAKLQPR; Chimeric CNP J (SEQ ID NO157) of US2010-305031 and WO2009/142307, and CNP derivative A of current invention.)", "values": [
      {"measurement": "Continuity of the cortical bone in soft X-ray images of femurs", "setting": "[1]", "result": "tendency for enhanced continuity of the cortical bone"},
      {"measurement": "Remaining fracture line in soft X-ray images of femurs", "setting": "[1]", "result": "decreasing tendency for the fracture line to remain"},
      {"measurement": "Gene expression level of Sox9 in fractured left femur", "setting": "[2]", "result": "this high level was maintained"},
      {"measurement": "Gene expression of type X collagen in fractured left femur", "setting": "[3]; Example 3: 0.5 mg/kg/day continuous s.c. (osmotic pump) for one week, normalized to ubiquitin C", "result": "significantly suppressed"},
      {"measurement": "Gene expression level of type X collagen in the callus", "setting": "[3]; Example 4: 0.5 mg/kg/day continuous s.c. for one week, versus vehicle group, FIG. 5C", "result": "suppressed"},
      {"measurement": "Break deformation", "setting": "[4]; [5]", "result": "1.15 ± 0.58", "unit": "mm"},
      {"measurement": "Break energy", "setting": "[4]; [5]", "result": "45.91 ± 26.15", "unit": "N.mm"},
      {"measurement": "Break strength", "setting": "[4]; [5]", "result": "72.05 ± 30.40", "unit": "N"},
      {"measurement": "Maximum load", "setting": "[4]; [5]", "result": "81.98 ± 34.64", "unit": "N"},
      {"measurement": "Stiffness (Δ70%-20%)", "setting": "[4]; [5]", "result": "138.36 ± 89.14", "unit": "N/mm"},
      {"measurement": "Break deformation, left/right ratio", "setting": "[4]; [6]", "result": "1.15 ± 0.57"},
      {"measurement": "Break energy, left/right ratio", "setting": "[4]; [6]", "result": "0.75 ± 0.33"},
      {"measurement": "Break strength, left/right ratio", "setting": "[4]; [6]", "result": "0.80 ± 0.33"},
      {"measurement": "Maximum load, left/right ratio", "setting": "[4]; [6]", "result": "0.86 and 0.86 ± 0.35"},
      {"measurement": "Stiffness (Δ70%-20%), left/right ratio", "setting": "[4]; [6]", "result": "0.75 ± 0.48"},
      {"measurement": "Break deformation", "setting": "[4]; [7]", "result": "0.99 ± 0.15", "unit": "mm"},
      {"measurement": "Break energy", "setting": "[4]; [7]", "result": "59.55 ± 12.33", "unit": "N.mm"},
      {"measurement": "Break strength", "setting": "[4]; [7]", "result": "89.22 ± 6.58", "unit": "N"},
      {"measurement": "Maximum load", "setting": "[4]; [7]", "result": "95.08 ± 5.29", "unit": "N"},
      {"measurement": "Stiffness (Δ70%-20%)", "setting": "[4]; [7]", "result": "187.11 ± 32.64", "unit": "N/mm"},
      {"measurement": "Break deformation", "setting": "[4]; [8]", "result": "1.04 ± 0.45", "unit": "mm"},
      {"measurement": "Break energy", "setting": "[4]; [8]", "result": "53.90 ± 24.24", "unit": "N.mm"},
      {"measurement": "Break strength", "setting": "[4]; [8]", "result": "80.02 ± 15.97", "unit": "N"},
      {"measurement": "Maximum load", "setting": "[4]; [8]", "result": "87.59 ± 19.00", "unit": "N"},
      {"measurement": "Stiffness (Δ70%-20%)", "setting": "[4]; [8]", "result": "162.09 ± 105.67", "unit": "N/mm"},
      {"measurement": "Break deformation, left/right ratio", "setting": "[4]; [9]", "result": "1.02 ± 0.38"},
      {"measurement": "Break energy, left/right ratio", "setting": "[4]; [9]", "result": "0.90 and 0.90 ± 0.36"},
      {"measurement": "Break strength, left/right ratio", "setting": "[4]; [9]", "result": "1.06 ± 0.33"},
      {"measurement": "Maximum load, left/right ratio", "setting": "[4]; [9]", "result": "1.03 and 1.03 ± 0.28"},
      {"measurement": "Stiffness (Δ70%-20%), left/right ratio", "setting": "[4]; [9]", "result": "0.85 ± 0.64"},
      {"measurement": "Break deformation", "setting": "[4]; [10]", "result": "1.01 ± 0.17", "unit": "mm"},
      {"measurement": "Break energy", "setting": "[4]; [10]", "result": "60.82 ± 13.73", "unit": "N.mm"},
      {"measurement": "Break strength", "setting": "[4]; [10]", "result": "77.75 ± 10.46", "unit": "N"},
      {"measurement": "Maximum load", "setting": "[4]; [10]", "result": "86.89 ± 10.96", "unit": "N"},
      {"measurement": "Stiffness (Δ70%-20%)", "setting": "[4]; [10]", "result": "200.64 ± 43.22", "unit": "N/mm"},
      {"measurement": "Break energy in a fracture site of the left femur, dose dependence", "setting": "[4]; 10 and 100 nmol/kg s.c. once per day for 8 weeks, versus vehicle", "result": "increased CNP derivative A-dose dependently"}
    ]}
  ]
}
